Reference: US6355799B1, “Substituted benzene compounds, process for their preparation, and herbicidal and defoliant compositions containing them” (ISK Americas Incorporated, priority 1997, dated 2002)

Legend:
Format in all cases: in vivo
[1] = tested on: redroot pigweed (Amaranthus retroflexus, AMARE); assay: Pre-emerge test, greenhouse herbicide activity screening; details: pre-emerge, 14 days after application, scale 0-100
Method in brief: (§1)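 Plants grown in 10 cm pots of sandy loam mix received acetone-dissolved compounds through a moving flat-fan nozzle. Doses ranged from 15 to 1000 g ai/ha. Pre-emerge pots were seeded one day earlier, post-emerge pots 8–21 days earlier. Fourteen days on, each pot was graded 0–100 for damage.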

[2] = tested on: barnyardgrass (Echinochloa crus-galli, ECHCG); assay: as above; details: pre-emerge, 14 days after application, scale 0-100
Method in brief: as §1

[3] = tested on: green foxtail (Setaria viridis, SETVI); assay: as above; details: pre-emerge, 14 days after application, scale 0-100
Method in brief: as §1

[4] = tested on: ivyleaf morningglory (Ipomoea hederacea, IPOHE); assay: as above; details: pre-emerge, 14 days after application, scale 0-100
Method in brief: as §1

[5] = tested on: johnsongrass (Sorghum halepense, SORHA); assay: as above; details: pre-emerge, 14 days after application, scale 0-100
Method in brief: as §1

[6] = tested on: lambsquarters (Chenopodium album, CHEAL); assay: as above; details: pre-emerge, 14 days after application, scale 0-100
Method in brief: as §1

[7] = tested on: large crabgrass (Digitaria sanguinalis, DIGSA); assay: as above; details: pre-emerge, 14 days after application, scale 0-100
Method in brief: as §1

[8] = tested on: sicklepod (Cassia obtusifolia, CASOB); assay: as above; details: pre-emerge, 14 days after application, scale 0-100
Method in brief: as §1

[9] = tested on: velvetleaf (Abutilon theophrasti, ABUTH); assay: as above; details: pre-emerge, 14 days after application, scale 0-100
Method in brief: as §1

[10] = tested on: field corn (Zea mays L., var. Dekalb 535, CORN); assay: Pre-emerge test, crop safety; details: pre-emerge, 14 days after application, scale 0-100
Method in brief: (§2)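 Rating: 0–100 visual injury, 14 DAA. Application: acetone, 187 l/ha, 15–1000 g ai/ha, flat-fan track sprayer with nozzle 40–45 cm above soil or canopy. Post-emerge runs used 0.25% v/v surfactant on 2–3 leaf plants.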

[11] = tested on: upland rice (Oryza sp., var. Tebonnet, RICE); assay: Pre-emerge test, crop safety; details: pre-emerge, 14 days after application, scale 0-100
Method in brief: as §2

[12] = tested on: barnyardgrass (Echinochloa crus-galli, ECHCG); assay: Post-emerge test, greenhouse herbicide activity screening; details: post-emerge, 14 days after application, rating scale 0-100
Method in brief: (§3)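 Sandy loam pots; pre-emerge: sown 1 d pre-spray, surface-watered after, then bottom-watered. Post-emerge: sown 8–21 d before, 2–3 leaf stage, + 0.25% v/v NIS, bottom-watered. Acetone, 187 l/ha track spray, 15–1000 g ai/ha. 0–100 injury score, day 14.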

[13] = tested on: green foxtail (Setaria viridis, SETVI); assay: as above; details: post-emerge, 14 days after application, rating scale 0-100
Method in brief: as §3

[14] = tested on: ivyleaf morningglory (Ipomoea hederacea, IPOHE); assay: as above; details: post-emerge, 14 days after application, rating scale 0-100
Method in brief: as §3

[15] = tested on: johnsongrass (Sorghum halepense, SORHA); assay: as above; details: post-emerge, 14 days after application, rating scale 0-100
Method in brief: as §3

[16] = tested on: lambsquarters (Chenopodium album, CHEAL); assay: as above; details: post-emerge, 14 days after application, rating scale 0-100
Method in brief: as §3

[17] = tested on: large crabgrass (Digitaria sanguinalis, DIGSA); assay: as above; details: post-emerge, 14 days after application, rating scale 0-100
Method in brief: as §3

[18] = tested on: redroot pigweed (Amaranthus retroflexus, AMARE); assay: as above; details: post-emerge, 14 days after application, rating scale 0-100
Method in brief: as §3

[19] = tested on: sicklepod (Cassia obtusifolia, CASOB); assay: as above; details: post-emerge, 14 days after application, rating scale 0-100
Method in brief: as §3

[20] = tested on: velvetleaf (Abutilon theophrasti, ABUTH); assay: as above; details: post-emerge, 14 days after application, rating scale 0-100
Method in brief: as §3

[21] = tested on: field corn (Zea mays L., var. Dekalb 535, CORN); assay: Post-emerge test, crop safety; details: post-emerge, 14 days after application, rating scale 0-100
Method in brief: (§4)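 Each test used a mechanized track sprayer delivering 187 l/ha of acetone solution at 15–1000 g ai/ha. Post-emerge foliage at 2–3 leaves was treated with added 0.25% v/v non-ionic surfactant and bottom-watered only. Injury was assessed on day 14, where 100 means total kill.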

[22] = tested on: upland rice (Oryza sp., var. Tebonnet, RICE); assay: Post-emerge test, crop safety; details: post-emerge, 14 days after application, rating scale 0-100
Method in brief: as §4

COc1c(Cl)cc(F)c(-n2c(=O)cc(C(F)(F)F)n(C)c2=O)c1NC(=O)c1c(C)cccc1C [2-124]
phytotoxicity rating AMARE ([1]; 63 g ai/ha): 40
phytotoxicity rating AMARE ([1]; 250 g ai/ha): 100
phytotoxicity rating ECHCG ([2]; 63 g ai/ha): 0
phytotoxicity rating ECHCG ([2]; 250 g ai/ha): 0
phytotoxicity rating SETVI ([3]; 63 g ai/ha): 0
phytotoxicity rating SETVI ([3]; 250 g ai/ha): 10
phytotoxicity rating IPOHE ([4]; 63 g ai/ha): 0
phytotoxicity rating IPOHE ([4]; 250 g ai/ha): 20
phytotoxicity rating SORHA ([5]; 63 g ai/ha): 0
phytotoxicity rating SORHA ([5]; 250 g ai/ha): 0
phytotoxicity rating CHEAL ([6]; 63 g ai/ha): 20
phytotoxicity rating CHEAL ([6]; 250 g ai/ha): 80
phytotoxicity rating DIGSA ([7]; 63 g ai/ha): 0
phytotoxicity rating DIGSA ([7]; 250 g ai/ha): 0
phytotoxicity rating CASOB ([8]; 63 g ai/ha): 0
phytotoxicity rating CASOB ([8]; 250 g ai/ha): 20
phytotoxicity rating ABUTH ([9]; 63 g ai/ha): 0
phytotoxicity rating ABUTH ([9]; 250 g ai/ha): 80
phytotoxicity rating CORN (crop damage) ([10]; 63 g ai/ha): 0
phytotoxicity rating CORN (crop damage) ([10]; 250 g ai/ha): 0
phytotoxicity rating RICE (crop damage) ([11]; 63 g ai/ha): 0
phytotoxicity rating RICE (crop damage) ([11]; 250 g ai/ha): 10
ECHCG phytotoxicity rating ([12]; 63 g ai/ha): 0
ECHCG phytotoxicity rating ([12]; 250 g ai/ha): 0
SETVI phytotoxicity rating ([13]; 63 g ai/ha): 0
SETVI phytotoxicity rating ([13]; 250 g ai/ha): 0
IPOHE phytotoxicity rating ([14]; 63 g ai/ha): 20
IPOHE phytotoxicity rating ([14]; 250 g ai/ha): 30
SORHA phytotoxicity rating ([15]; 63 g ai/ha): 0
SORHA phytotoxicity rating ([15]; 250 g ai/ha): 0
CHEAL phytotoxicity rating ([16]; 63 g ai/ha): 30
CHEAL phytotoxicity rating ([16]; 250 g ai/ha): 50
DIGSA phytotoxicity rating ([17]; 63 g ai/ha): 0
DIGSA phytotoxicity rating ([17]; 250 g ai/ha): 0
AMARE phytotoxicity rating ([18]; 63 g ai/ha): 30
AMARE phytotoxicity rating ([18]; 250 g ai/ha): 90
CASOB phytotoxicity rating ([19]; 63 g ai/ha): 0
CASOB phytotoxicity rating ([19]; 250 g ai/ha): 20
ABUTH phytotoxicity rating ([20]; 63 g ai/ha): 40
ABUTH phytotoxicity rating ([20]; 250 g ai/ha): 95
CORN phytotoxicity rating (crop damage) ([21]; 63 g ai/ha): 0
CORN phytotoxicity rating (crop damage) ([21]; 250 g ai/ha): 5
RICE phytotoxicity rating (crop damage) ([22]; 63 g ai/ha): 0
RICE phytotoxicity rating (crop damage) ([22]; 250 g ai/ha): 0

COc1c(Cl)cc(F)c(-n2c(=O)cc(C(F)(F)F)n(C)c2=O)c1NC(=O)C=Cc1ccccc1F [2-125]
phytotoxicity rating AMARE ([1]; 63 g ai/ha): 100
phytotoxicity rating AMARE ([1]; 250 g ai/ha): 100
phytotoxicity rating ECHCG ([2]; 63 g ai/ha): 10
phytotoxicity rating ECHCG ([2]; 250 g ai/ha): 50
phytotoxicity rating SETVI ([3]; 63 g ai/ha): 50
phytotoxicity rating SETVI ([3]; 250 g ai/ha): 90
phytotoxicity rating IPOHE ([4]; 63 g ai/ha): 0
phytotoxicity rating IPOHE ([4]; 250 g ai/ha): 100
phytotoxicity rating SORHA ([5]; 63 g ai/ha): 20
phytotoxicity rating SORHA ([5]; 250 g ai/ha): 50
phytotoxicity rating CHEAL ([6]; 63 g ai/ha): 100
phytotoxicity rating CHEAL ([6]; 250 g ai/ha): 100
phytotoxicity rating DIGSA ([7]; 63 g ai/ha): 30
phytotoxicity rating DIGSA ([7]; 250 g ai/ha): 90
phytotoxicity rating CASOB ([8]; 63 g ai/ha): 30
phytotoxicity rating CASOB ([8]; 250 g ai/ha): 70
phytotoxicity rating ABUTH ([9]; 63 g ai/ha): 100
phytotoxicity rating ABUTH ([9]; 250 g ai/ha): 100
phytotoxicity rating CORN (crop damage) ([10]; 63 g ai/ha): 0
phytotoxicity rating CORN (crop damage) ([10]; 250 g ai/ha): 10
phytotoxicity rating RICE (crop damage) ([11]; 63 g ai/ha): 0
phytotoxicity rating RICE (crop damage) ([11]; 250 g ai/ha): 45
ECHCG phytotoxicity rating ([12]; 63 g ai/ha): 20
ECHCG phytotoxicity rating ([12]; 250 g ai/ha): 40
SETVI phytotoxicity rating ([13]; 63 g ai/ha): 40
SETVI phytotoxicity rating ([13]; 250 g ai/ha): 60
IPOHE phytotoxicity rating ([14]; 63 g ai/ha): 100
IPOHE phytotoxicity rating ([14]; 250 g ai/ha): 100
SORHA phytotoxicity rating ([15]; 63 g ai/ha): 30
SORHA phytotoxicity rating ([15]; 250 g ai/ha): 40
CHEAL phytotoxicity rating ([16]; 63 g ai/ha): 100
CHEAL phytotoxicity rating ([16]; 250 g ai/ha): 100
DIGSA phytotoxicity rating ([17]; 63 g ai/ha): 20
DIGSA phytotoxicity rating ([17]; 250 g ai/ha): 40
AMARE phytotoxicity rating ([18]; 63 g ai/ha): 100
AMARE phytotoxicity rating ([18]; 250 g ai/ha): 100
CASOB phytotoxicity rating ([19]; 63 g ai/ha): 90
CASOB phytotoxicity rating ([19]; 250 g ai/ha): 100
ABUTH phytotoxicity rating ([20]; 63 g ai/ha): 100
ABUTH phytotoxicity rating ([20]; 250 g ai/ha): 100
CORN phytotoxicity rating (crop damage) ([21]; 63 g ai/ha): 10
CORN phytotoxicity rating (crop damage) ([21]; 250 g ai/ha): 20
RICE phytotoxicity rating (crop damage) ([22]; 63 g ai/ha): 40
RICE phytotoxicity rating (crop damage) ([22]; 250 g ai/ha): 70
